The results in this text go back to ChEMBL document CHEMBL4665629, “An optimised series of substituted N-phenylpyrrolamides as DNA gyrase B inhibitors” (Eur J Med Chem, 2019).

One assay deals with Staphylococcus aureus. Put plainly: Antibacterial activity against Staphylococcus aureus ATCC 29213 assessed as bacterial growth inhibition at 50 uM incubated for 24 hrs by CLSI protocol based broth microdilution assay relative to control. Type of assay: functional. In general terms: Broth dilution looks for growth in wells or tubes with falling amounts of substance.
Assay [1] concerns the target DNA gyrase (Escherichia coli) (UniProt P0AES6+P0AES4). Put plainly: Inhibition of Escherichia coli DNA gyrase assessed as residual activity at 1 uM using biotinylated oligonucleotide as substrate incubated for 30 mins in presence of ATP by fluorescence-based microplate reader assay relative to control. It counts as protein-complex assay.
In the next assay the test system is Enterococcus faecium. In words: Antibacterial activity against Enterococcus faecium ATCC 35667 assessed as bacterial growth inhibition at 50 uM incubated for 24 hrs by CLSI protocol based broth microdilution assay relative to control. It counts as functional.
Assay [2] relates to Escherichia coli. In words: Antibacterial activity against efflux pump d effect ive Escherichia coli JW5503 harbouring tolC mutant assessed as bacterial growth inhibition at 50 uM incubated for 24 hrs by CLSI protocol based broth microdilution assay relative to control. It counts as functional.
For assay [3], the system named is Escherichia coli. In words: Antibacterial activity against Escherichia coli ATCC 25922 assessed as bacterial growth inhibition at 50 uM incubated for 24 hrs by CLSI protocol based broth microdilution assay relative to control. It counts as functional.
For another assay, the system named is Enterococcus faecalis. In words: Antibacterial activity against Enterococcus faecalis ATCC 29212 assessed as bacterial growth inhibition at 50 uM incubated for 24 hrs by CLSI protocol based broth microdilution assay relative to control. It counts as functional.
In the next assay the test system is Klebsiella pneumoniae. In words: Antibacterial activity against Klebsiella pneumoniae ATCC 700603 assessed as bacterial growth inhibition at 50 uM incubated for 24 hrs by CLSI protocol based broth microdilution assay relative to control. It counts as functional.
The subject of the next assay is Pseudomonas aeruginosa. Put plainly: Antibacterial activity against Pseudomonas aeruginosa ATCC 27853 assessed as bacterial growth inhibition at 50 uM incubated for 24 hrs by CLSI protocol based broth microdilution assay relative to control. Type of assay: functional.
The test system of a further assay is Acinetobacter baumannii. In words: Antibacterial activity against Acinetobacter baumannii ATCC 19606 assessed as bacterial growth inhibition at 50 uM incubated for 24 hrs by CLSI protocol based broth microdilution assay relative to control. Type of assay: functional. To be noted: ATCC 19606 = CIP 70.34 = JCM 6841.
Assay [4] deals with Escherichia coli. In words: Antibacterial activity against outer membrane impaired Escherichia coli JD17464 harboring lpxC mutant assessed as bacterial growth inhibition at 50 uM incubated for 24 hrs by CLSI protocol based broth microdilution assay relative to control. Type of assay: functional.
The subject of the next assay is Klebsiella aerogenes. In words: Antibacterial activity against Enterobacter aerogenes ATCC 13408 assessed as bacterial growth inhibition at 50 uM incubated for 24 hrs by CLSI protocol based broth microdilution assay relative to control. Type of assay: functional.
In a further assay the target is DNA gyrase (Escherichia coli, UniProt P0AES4+P0AES6). In words: Inhibition of Escherichia coli DNA gyrase using biotinylated oligonucleotide as substrate incubated for 30 mins in presence of ATP by fluorescence-based microplate reader assay. Type of assay: protein-complex assay.

Broadly, the inhibition is the change of the read-out against control, counted positive when it falls. As to `CCOC(=O)C(NC(=O)c1ccc(NC(=O)c2cc(Br)c(Br)[nH]2)cc1)C(=O)OCC`, the inhibition at 50 µM in the assay on Staphylococcus aureus is 12%; with Enterococcus faecium it was -8%; with Escherichia coli [2] it was -8%; with Escherichia coli [3] it was 9%; in the assay with Enterococcus faecalis it was 8%; in the assay on Klebsiella pneumoniae it was 1%. Also, the inhibition at 50 µM stood at 5% with Pseudomonas aeruginosa, 3% in the assay on Acinetobacter baumannii, 2% with Escherichia coli [4] and 1% with Klebsiella aerogenes. Also, in assay [1], the Activity stood at 78%.

In the case of `Cc1[nH]c(C(=O)Nc2ccc(S(=O)(=O)Nc3nccs3)cc2)c(Cl)c1Cl`, the inhibition at 50 µM in the assay on Staphylococcus aureus was -2%; with Enterococcus faecium, 43%; in the assay on Escherichia coli [2] it was 5%; in the assay on Escherichia coli [3] it was 13%; with Enterococcus faecalis it was 23%; with Klebsiella pneumoniae it was 1%. Also, the inhibition at 50 µM was 10% in the assay with Pseudomonas aeruginosa, 10% in the assay on Acinetobacter baumannii, 17% with Escherichia coli [4] and -2% with Klebsiella aerogenes. In addition, in assay [1], the Activity is 100%.

For the compound `COC(=O)CNS(=O)(=O)c1ccc(NC(=O)c2[nH]c(C)c(Cl)c2Cl)cc1`, the inhibition at 50 µM is 12% in the assay with Staphylococcus aureus; 34% in the assay on Enterococcus faecium; -1% with Escherichia coli [2]; 18% in the assay on Escherichia coli [3]; 8% with Enterococcus faecalis; 1% in the assay on Klebsiella pneumoniae. Besides, the inhibition at 50 µM is 5% with Pseudomonas aeruginosa, 9% in the assay on Acinetobacter baumannii, 4% in the assay on Escherichia coli [4] and -4% in the assay with Klebsiella aerogenes. Moreover, in assay [1], the Activity was determined as 87%.

On to `COC(=O)[C@@H](C)NC(=O)c1ccc(NC(=O)c2[nH]c(C)c(Cl)c2Cl)c(OC(C)C)c1`, for which the inhibition at 50 µM in the assay with Staphylococcus aureus was 29%; with Enterococcus faecium it was -15%; in the assay with Escherichia coli [2], 11%; with Escherichia coli [3], 12%; with Enterococcus faecalis, -41%; in the assay with Klebsiella pneumoniae, 16%. The inhibition at 50 µM with Pseudomonas aeruginosa amounted to 5%; in the assay on Acinetobacter baumannii it was 8%; in the assay on Escherichia coli [4], 27%; with Klebsiella aerogenes it was 12%. Moreover, the Activity in [1] amounted to 87%.

As usually defined, the IC50 is the concentration at which inhibition is half-maximal. Consider `CCOC(=O)C(NC(=O)c1ccc(NC(=O)c2[nH]c(C)c(Cl)c2Cl)cc1)C(=O)OCC`, for which the inhibition at 50 µM came out at 32% in the assay on Staphylococcus aureus; 11% in the assay with Enterococcus faecium; 8% in the assay on Escherichia coli [2]; 13% in the assay with Escherichia coli [3]; 14% in the assay with Enterococcus faecalis; 18% with Klebsiella pneumoniae. In addition, the inhibition at 50 µM is -6% in the assay on Pseudomonas aeruginosa, 9% in the assay with Acinetobacter baumannii, 8% in the assay with Escherichia coli [4] and 11% in the assay with Klebsiella aerogenes. Further, on DNA gyrase, the IC50 stood at 7700 nM.

Take `CC(C)(C)OC(=O)N1CCC(Oc2cc(C(=O)NCC(=O)O)ccc2NC(=O)c2cc(Br)c(Br)[nH]2)CC1`: the inhibition at 50 µM is -18% in the assay on Staphylococcus aureus; -76% in the assay on Enterococcus faecium; -4% with Escherichia coli [2]; -14% with Escherichia coli [3]; 9% with Klebsiella pneumoniae; 6% in the assay on Pseudomonas aeruginosa. Also, the inhibition at 50 µM with Acinetobacter baumannii was -4%; in the assay with Escherichia coli [4] it was -6%; in the assay on Klebsiella aerogenes, -14%. Further, at DNA gyrase, the IC50 turned out to be 630 nM.

For the compound `CCOC(=O)c1cc2cc(NC(=O)c3[nH]c(C)c(Cl)c3Cl)ccc2[nH]1`, in [1], the Activity is 100%.

As for `Cc1[nH]c(C(=O)Nc2ccc(S(=O)(=O)NCC(=O)O)cc2)c(Cl)c1Cl`, the inhibition at 50 µM was determined as 4% in the assay with Staphylococcus aureus; 3% in the assay with Enterococcus faecium; 6% in the assay with Escherichia coli [2]; 7% in the assay with Escherichia coli [3]; 9% in the assay on Enterococcus faecalis; 7% in the assay with Klebsiella pneumoniae. The inhibition at 50 µM was -4% in the assay with Pseudomonas aeruginosa, 5% in the assay on Acinetobacter baumannii, 1% with Escherichia coli [4] and 7% in the assay on Klebsiella aerogenes. Besides, the Activity in assay [1] turned out to be 87%.

Turning to `COC(=O)CNC(=O)c1ccc(NC(=O)c2cc(Br)c(Br)[nH]2)c(OC2CCN(C(=O)OC(C)(C)C)CC2)c1`, the inhibition at 50 µM with Staphylococcus aureus is -17%; with Enterococcus faecium, -75%; with Escherichia coli [2] it was -4%; in the assay on Escherichia coli [3], -8%; in the assay with Klebsiella pneumoniae it was -12%; in the assay with Pseudomonas aeruginosa, -1%. Moreover, the inhibition at 50 µM is -4% in the assay on Acinetobacter baumannii, 1% in the assay on Escherichia coli [4] and -9% in the assay on Klebsiella aerogenes. Moreover, in [1], the Activity was 100%.

Consider `Cc1[nH]c(C(=O)Nc2ccc(S(N)(=O)=O)cc2)c(Cl)c1Cl`, for which the inhibition at 50 µM with Staphylococcus aureus amounted to 12%; in the assay with Enterococcus faecium, 54%; in the assay with Escherichia coli [2], 2%; in the assay on Escherichia coli [3], 13%; with Enterococcus faecalis it was 6%; in the assay on Klebsiella pneumoniae, 4%. In addition, the inhibition at 50 µM with Pseudomonas aeruginosa was -4%; with Acinetobacter baumannii, 6%; with Escherichia coli [4], 4%; in the assay with Klebsiella aerogenes, 1%. Moreover, the Activity in [1] is 82%.

For the compound `N#CCNC(=O)c1ccc(NC(=O)c2cc(Br)c(Br)[nH]2)cc1`, the inhibition at 50 µM with Staphylococcus aureus is -5%; with Enterococcus faecium it was 2%; in the assay on Escherichia coli [2] it was -9%; in the assay on Escherichia coli [3], 2%; in the assay on Enterococcus faecalis, 7%; with Klebsiella pneumoniae, 5%. The inhibition at 50 µM with Pseudomonas aeruginosa was 11%; in the assay on Acinetobacter baumannii, 2%; with Escherichia coli [4], -5%; in the assay on Klebsiella aerogenes, 7%. The IC50 at DNA gyrase was found to be 960 nM.

As for `COC(=O)CNC(=O)c1ccc(NC(=O)c2[nH]c(C)c(Cl)c2Cl)c(OC2CCN(C(=O)OC(C)(C)C)CC2)c1`, the inhibition at 50 µM with Staphylococcus aureus was 8%; in the assay on Enterococcus faecium it was -19%; in the assay with Escherichia coli [2], 7%; in the assay on Escherichia coli [3] it was 26%; with Klebsiella pneumoniae, -2%; with Pseudomonas aeruginosa it was -18%. Besides, the inhibition at 50 µM was 15% with Acinetobacter baumannii, 31% in the assay with Escherichia coli [4] and 5% in the assay on Klebsiella aerogenes. Also, the Activity in [1] came to 100%.

For the compound `COC(=O)[C@@H](C)NC(=O)c1ccc(NC(=O)c2[nH]c(C)c(Cl)c2Cl)c(OC2CCN(C(=O)OC(C)(C)C)CC2)c1`, the inhibition at 50 µM in the assay on Staphylococcus aureus came out at 30%; in the assay with Enterococcus faecium it was 52%; in the assay on Escherichia coli [2], 40%; in the assay with Escherichia coli [3], 18%; in the assay with Klebsiella pneumoniae it was 2%; in the assay with Pseudomonas aeruginosa, 33%. Moreover, the inhibition at 50 µM with Acinetobacter baumannii turned out to be 36%; in the assay with Escherichia coli [4], 44%; in the assay on Klebsiella aerogenes it was 22%. The Activity in assay [1] came out at 94%.

Regarding `Cc1[nH]c(C(=O)Nc2ccc(C(=O)NCC(=O)O)cc2O[C@H]2CCN(C(=O)OC(C)(C)C)C2)c(Cl)c1Cl`, the inhibition at 50 µM in the assay with Staphylococcus aureus was -1%; with Enterococcus faecium, 9%; with Escherichia coli [2], 2%; in the assay on Escherichia coli [3] it was 5%; in the assay on Klebsiella pneumoniae it was 9%; with Pseudomonas aeruginosa, 14%. The inhibition at 50 µM in the assay with Acinetobacter baumannii is 1%; in the assay on Escherichia coli [4] it was -2%; in the assay with Klebsiella aerogenes, 6%. Moreover, the IC50 on DNA gyrase was found to be 92 nM.

Turning to `COC(=O)CNC(=O)c1ccc(NC(=O)c2[nH]c(C)c(Cl)c2Cl)c(O[C@H]2CCN(C(=O)OC(C)(C)C)C2)c1`, the inhibition at 50 µM in the assay with Staphylococcus aureus is 12%; in the assay with Enterococcus faecium, 23%; in the assay on Escherichia coli [2], -4%; in the assay on Escherichia coli [3], 10%; with Klebsiella pneumoniae it was 8%; in the assay with Pseudomonas aeruginosa, 12%. Further, the inhibition at 50 µM in the assay on Acinetobacter baumannii is 9%; in the assay on Escherichia coli [4], 30%; in the assay with Klebsiella aerogenes, 7%. In assay [1], the Activity was 93%.
